ChEMBL document CHEMBL1150081, “Antimicrobial Agents from Tanacetum balsamita” (1995)
Converted amounts (≈) assume the structure as drawn. The source made the active and inactive calls. The rule behind the calls is not given here.

Assays:
[1] = tested on: Cyberlindnera jadinii; assay: Antifungal activity against Candida utilis ATCC 9226 after 2 days by broth dilution method; assay type: functional; settings: Williopsis jadinii, ATCC 9226, 48 h
[2] = tested on: Malassezia; assay: Antifungal activity against Pityrosporum ovale ATCC 14521 after 3 days by broth dilution method; assay type: functional; settings: ATCC 14521, 72 h
[3] = tested on: Staphylococcus aureus; assay: Antibacterial activity against Staphylococcus aureus ATCC 12598 after 2 days by broth dilution method; assay type: functional; settings: ATCC 12598, 48 h
[4] = tested on: Corynebacterium ammoniagenes; assay: Antibacterial activity against Brevibacterium ammoniagenes ATCC 6872 after 2 days by broth dilution method; assay type: functional; settings: ATCC 6872, 48 h
[5] = tested on: Trichophyton mentagrophytes; assay: Antifungal activity against Trichophyton mentagrophytes ATCC 18748 after 5 days by broth dilution method; assay type: functional; settings: ATCC 18748, 120 h
[6] = tested on: Streptococcus mutans; assay: Antibacterial activity against Streptococcus mutans ATCC […] after 2 days by broth dilution method; assay type: functional; settings: 48 h
[7] = tested on: Cutibacterium acnes; assay: Antibacterial activity against Propionibacterium acnes ATCC 11827 after 2 days by broth dilution method; assay type: functional; settings: ATCC 11827, 48 h
[8] = tested on: Saccharomyces cerevisiae; assay: Antifungal activity against Saccharomyces cerevisiae ATCC 7754 after 2 days by broth dilution method; assay type: functional; settings: ATCC 7754, 48 h
[9] = tested on: Klebsiella aerogenes; assay: Antibacterial activity against Enterobacter aerogenes ATCC 13048 after 2 days by broth dilution method; assay type: functional; settings: ATCC 13048, 48 h
[10] = tested on: Pseudomonas aeruginosa; assay: Antibacterial activity against Pseudomonas aeruginosa ATCC 10145 after 2 days by broth dilution method; assay type: functional; settings: ATCC 10145, 48 h
[11] = tested on: Bacillus subtilis; assay: Antibacterial activity against Bacillus subtilis ATCC 9372 after 2 days by broth dilution method; assay type: functional; settings: ATCC 9372, 48 h
[12] = tested on: Proteus vulgaris; assay: Antibacterial activity against Proteus vulgaris ATCC 13315 after 2 days by broth dilution method; assay type: functional; settings: ATCC 13315, 48 h
[13] = tested on: Escherichia coli; assay: Antibacterial activity against Escherichia coli ATCC 9637 after 2 days by broth dilution method; assay type: functional; settings: ATCC 9637, 48 h
[14] = tested on: Penicillium chrysogenum; assay: Antifungal activity against Penicillium chrysogenum ATCC 10106 after 5 days by broth dilution method; assay type: functional; settings: ATCC 10106, 120 h
[15] = tested on: Pseudomonas aeruginosa; assay: Antibacterial activity against Pseudomonas aeruginosa ATCC 10145 up to 800 ug/ml after 2 days by broth dilution method; assay type: functional, organism-based
[16] = tested on: Escherichia coli; assay: Antibacterial activity against Escherichia coli ATCC 9637 up to 800 ug/ml after 2 days by broth dilution method; assay type: functional, organism-based
[17] = tested on: Proteus vulgaris; assay: Antibacterial activity against Proteus vulgaris ATCC 13315 up to 800 ug/ml after 2 days by broth dilution method; assay type: functional, organism-based
[18] = tested on: Klebsiella aerogenes; assay: Antibacterial activity against Enterobacter aerogenes ATCC 13048 up to 800 ug/ml after 2 days by broth dilution method; assay type: functional, organism-based
[19] = tested on: Corynebacterium ammoniagenes; assay: Antibacterial activity against Brevibacterium ammoniagenes ATCC 6872 up to 800 ug/ml after 2 days by broth dilution method; assay type: functional, organism-based
[20] = tested on: Cutibacterium acnes; assay: Antibacterial activity against Propionibacterium acnes ATCC 11827 up to 800 ug/ml after 2 days by broth dilution method; assay type: functional, organism-based
[21] = tested on: Trichophyton mentagrophytes; assay: Antifungal activity against Trichophyton mentagrophytes ATCC 18748 up to 800 ug/ml after 5 days by broth dilution method; assay type: functional, organism-based
[22] = tested on: Staphylococcus aureus; assay: Antibacterial activity against Staphylococcus aureus ATCC 12598 up to 800 ug/ml after 2 days by broth dilution method; assay type: functional, organism-based
[23] = tested on: Malassezia; assay: Antifungal activity against Pityrosporum ovale ATCC 14521 up to 800 ug/ml after 3 days by broth dilution method; assay type: functional, organism-based
[24] = tested on: Penicillium chrysogenum; assay: Antifungal activity against Penicillium chrysogenum ATCC 10106 up to 800 ug/ml after 5 days by broth dilution method; assay type: functional, organism-based
[25] = tested on: Bacillus subtilis; assay: Antibacterial activity against Bacillus subtilis ATCC 9372 up to 800 ug/ml after 2 days by broth dilution method; assay type: functional, organism-based
[26] = tested on: Streptococcus mutans; assay: Antibacterial activity against Streptococcus mutans ATCC […] up to 800 ug/ml after 2 days by broth dilution method; assay type: functional, organism-based
[27] = tested on: Cyberlindnera jadinii; assay: Antifungal activity against Candida utilis ATCC 9226 up to 800 ug/ml after 2 days by broth dilution method; assay type: functional, organism-based
[28] = tested on: Saccharomyces cerevisiae; assay: Antifungal activity against Saccharomyces cerevisiae ATCC 7754 up to 800 ug/ml after 2 days by broth dilution method; assay type: functional, organism-based
[29] = tested on: Cutibacterium acnes; assay: Ratio of MBC to MIC for Propionibacterium acnes ATCC 11827; assay type: functional
[30] = tested on: Klebsiella aerogenes; assay: Ratio of MBC to MIC for Enterobacter aerogenes ATCC 13048; assay type: functional
[31] = tested on: Proteus vulgaris; assay: Ratio of MBC to MIC for Proteus vulgaris ATCC 13315; assay type: functional
[32] = tested on: Staphylococcus aureus; assay: Ratio of MBC to MIC for Staphylococcus aureus ATCC 12598; assay type: functional
[33] = tested on: Pseudomonas aeruginosa; assay: Ratio of MBC to MIC for Pseudomonas aeruginosa ATCC 10145; assay type: functional
[34] = tested on: Streptococcus mutans; assay: Ratio of MBC to MIC for Streptococcus mutans ATCC […]; assay type: functional
[35] = tested on: Escherichia coli; assay: Ratio of MBC to MIC for Escherichia coli ATCC 9637; assay type: functional
[36] = tested on: Corynebacterium ammoniagenes; assay: Ratio of MBC to MIC for Brevibacterium ammoniagenes ATCC 6872; assay type: functional

| MIC [1] [µg/mL] | MIC [2] [µg/mL] | MIC [3] [µg/mL] | MIC [4] [µg/mL] | MIC [5] [µg/mL] | MIC [6] [µg/mL] | MIC [7] [µg/mL] | MIC [8] [µg/mL] | MIC [9] [µg/mL] | MIC [10] [µg/mL] | MIC [11] [µg/mL] | MIC [12] [µg/mL] | MIC [13] [µg/mL] | MIC [14] [µg/mL] | SMILES | other results |
| --- | --- | --- | --- | --- | --- | --- | --- | --- | --- | --- | --- | --- | --- | --- | --- |
| 200 (≈ 1390 µM) | 200 (≈ 1390 µM) | 400 (≈ 2770 µM) | 400 (≈ 2770 µM) | 50 (≈ 347 µM) | 1600 (≈ 11100 µM) | 200 (≈ 1390 µM) | 200 (≈ 1390 µM) | > 800 | > 800 | 200 (≈ 1390 µM) | 200 (≈ 1390 µM) | > 800 | 100 (≈ 693 µM) | CCCCCCCC(=O)O [OCTANOIC ACID] | – |
| 25 (≈ 162 µM) | 25 (≈ 162 µM) | 25 (≈ 162 µM) | 50 (≈ 324 µM) | 3.13 (≈ 20.3 µM) | 100 (≈ 648 µM) | 12.5 (≈ 81 µM) | 25 (≈ 162 µM) | > 800 | > 800 | 25 (≈ 162 µM) | 25 (≈ 162 µM) | > 800 | 12.5 (≈ 81 µM) | CCCCCCC/C=C/C=O [TRANS-2-DECENAL] | – |
| > 800 | 800 (≈ 7990 µM) | > 800 | > 800 | > 800 | > 800 | 800 (≈ 7990 µM) | > 800 | > 800 | > 800 | > 800 | > 800 | > 800 | > 800 | CCCCCC=O [HEXANAL] | – |
| 400 (≈ 3440 µM) | 400 (≈ 3440 µM) | > 800 | 400 (≈ 3440 µM) | 100 (≈ 861 µM) | > 800 | 400 (≈ 3440 µM) | 400 (≈ 3440 µM) | > 800 | > 800 | 200 (≈ 1720 µM) | 400 (≈ 3440 µM) | > 800 | 400 (≈ 3440 µM) | CCCCCC(=O)O [HEXANOATE] | – |
| 800 (≈ 9510 µM) | 200 (≈ 2380 µM) | > 800 | > 800 | 200 (≈ 2380 µM) | > 800 | 800 (≈ 9510 µM) | 800 (≈ 9510 µM) | > 800 | > 800 | 800 (≈ 9510 µM) | 800 (≈ 9510 µM) | > 800 | 50 (≈ 594 µM) | CC(C)=CC=O [3-METHYL-(E)-2-BUTENAL] | – |
| 25 (≈ 178 µM) | 25 (≈ 178 µM) | 50 (≈ 357 µM) | 100 (≈ 713 µM) | 12.5 (≈ 89.1 µM) | 100 (≈ 713 µM) | 25 (≈ 178 µM) | 25 (≈ 178 µM) | 200 (≈ 1430 µM) | > 800 | 50 (≈ 357 µM) | 25 (≈ 178 µM) | 200 (≈ 1430 µM) | 50 (≈ 357 µM) | CCCCCC/C=C/C=O [2-NONENAL] | – |

More lines, now with the values behind:

| SMILES | MIC [1] [µg/mL] | MIC [2] [µg/mL] | MIC [3] [µg/mL] | MIC [4] [µg/mL] | MIC [5] [µg/mL] | MIC [6] [µg/mL] | MIC [7] [µg/mL] | MIC [8] [µg/mL] | MIC [9] [µg/mL] | MIC [10] [µg/mL] | MIC [11] [µg/mL] | MIC [12] [µg/mL] | MIC [13] [µg/mL] | MIC [14] [µg/mL] | other results |
| --- | --- | --- | --- | --- | --- | --- | --- | --- | --- | --- | --- | --- | --- | --- | --- |
| CCCCCCCCCCCCCCCC(=O)O | – | – | – | – | – | – | – | – | – | – | – | – | – | – | Activity [15]: inactive; Activity [16]: inactive; Activity [17]: inactive; Activity [18]: inactive; Activity [19]: inactive; Activity [20]: inactive; Activity [21]: inactive; Activity [22]: inactive; Activity [23]: inactive; Activity [24]: inactive; Activity [25]: inactive; Activity [26]: inactive; Activity [27]: inactive; Activity [28]: inactive |
| CCCC/C=C/C=O | 100 (≈ 891 µM) | 50 (≈ 446 µM) | 400 (≈ 3570 µM) | 400 (≈ 3570 µM) | 25 (≈ 223 µM) | 400 (≈ 3570 µM) | 100 (≈ 891 µM) | 100 (≈ 891 µM) | 400 (≈ 3570 µM) | 800 (≈ 7130 µM) | 200 (≈ 1780 µM) | 100 (≈ 891 µM) | 400 (≈ 3570 µM) | 50 (≈ 446 µM) | Ratio [29]: <=2; Ratio [30]: <=2; Ratio [31]: <=2; Ratio [32]: <=2; Ratio [33]: <=2; Ratio [34]: <=2; Ratio [35]: <=2; Ratio [36]: <=2 |
| CCCCCCCC/C=C/C=O | 12.5 (≈ 74.3 µM) | 25 (≈ 149 µM) | 12.5 (≈ 74.3 µM) | 25 (≈ 149 µM) | 1.56 (≈ 9.27 µM) | 50 (≈ 297 µM) | 6.25 (≈ 37.1 µM) | 25 (≈ 149 µM) | > 800 | > 800 | 25 (≈ 149 µM) | 12.5 (≈ 74.3 µM) | > 800 | 6.25 (≈ 37.1 µM) | – |
| CCCCC/C=C/C=C/C=O | 25 (≈ 164 µM) | 12.5 (≈ 82.1 µM) | 50 (≈ 328 µM) | 100 (≈ 657 µM) | 1.56 (≈ 10.2 µM) | 100 (≈ 657 µM) | 12.5 (≈ 82.1 µM) | 25 (≈ 164 µM) | > 800 | > 800 | 50 (≈ 328 µM) | 25 (≈ 164 µM) | > 800 | 12.5 (≈ 82.1 µM) | – |
| CCCCC/C=C/C=O | 50 (≈ 396 µM) | 25 (≈ 198 µM) | 200 (≈ 1580 µM) | 200 (≈ 1580 µM) | 25 (≈ 198 µM) | 400 (≈ 3170 µM) | 50 (≈ 396 µM) | 50 (≈ 396 µM) | 200 (≈ 1580 µM) | > 800 | 100 (≈ 792 µM) | 50 (≈ 396 µM) | 200 (≈ 1580 µM) | 50 (≈ 396 µM) | – |
